One molecule from PMC12505902, “Inhibitors of trehalose-6-phosphate synthase activity in fungal pathogens compromise thermal tolerance pathways” (mBio, 2025) can be followed below.

Where two headings read alike, the source gives them in different places.

The test system of this assay is C. deneoformans (JEC21). In words: MIC dose-response assay in YPD. The format is cell-based. As to conditions: Cryptococcus deneoformans. The protocol:
Fig 4 4456dh inhibits the growth of Candida and Cryptococcus species. Two-fold dose response assays were performed against (A) C. albicans at 42°C and C. auris at 39°C, (B) C. glabrata at 42°C, and (C) C. neoformans, C. deneoformans, and C. gattii at 37°C. 4456dh was administered at the concentrations indicated. Cultures were grown in YPD at the listed temperatures for 48 hours for Candida species and 72 hours for Cryptococcus species. Experimental temperatures reflect the temperatures at which the fungi experience heat stress. Left: relative growth of treated samples was calculated by averaging technical triplicates and normalizing the OD600 of each treated well to the average OD600 of the untreated WT controls, after the absorbance due to the compound was subtracted. The MIC80 values, calculated based on the OD600 values, are indicated in the white text on each heat map. Right: representative spot assays show the ability of cells to grow after exposure to 4456dh and indicate fungicidal activity of 4456dh. […]
124 technical replicates. Growth, as determined by a reading of absorbance at 600 nm, was
125 normalized to untreated controls and was corrected for the absorbance of 4456dh in the YPD […]
129 overnight cultures was quantified by measuring the OD600 and corrected for the background
130 absorbance of the medium. Antifungal potency for 4456dh was assessed by minimum inhibitory […]
137 replicates. Growth, as determined by a reading of absorbance at 600 nm, was normalized to
138 untreated controls and was corrected for the absorbance of 4456dh in the YPD medium. […]
139 minimum inhibitory concentration causing 80% growth reduction, or MIC80, was determined based […]
157 Optical density (OD600) was determined with an Infinite PRO plate reader ( Tecan). […]

One may read the MIC80 as the lowest concentration that inhibits either 80% of growth or 80% of the strains tested, depending on the study. Molecule `Cn1cc(-c2csc(NC(=O)Cc3ccccn3)n2)cn1` [Compound 4456dh] had an MIC80 of more than 13000 µM. Besides, the MIC80 (37°C, YPD, 72 hours, read-out: MIC80) turned out to be 3000 µM. For the setting “Supplemental Table 5, This publication, read-out: MIC80”, the MIC80 is 1190 µg/mL.
